These are literature values, as cited in US20250255801A1, “Novel Parenteral Composition Comprising Linagliptin or its Salts” (Zenvision Pharma LLP, priority 2021, published 2025).

SMILES strings stand for the structures. ≈ marks a conversion by molar mass, not a printed value.

The conditions of data set [1]: high solubility and low permeability.
Assay in data set [2]: not given
This is another data set of the same source.

Regarding `CC#CCn1c(N2CCC[C@@H](N)C2)nc2c1c(=O)n(Cc1nc(C)c3ccccc3n1)c(=O)n2C` [Linagliptin, 1H-Purine-2,6-dione, 8-[(3R)-3-amino-1-piperidinyl]-7-(2-butyn-1-yl)-3,7-dihydro-3-methyl-1-[(4-methyl-2 quinazolinyl)methyl]-], the oral systemic bioavailability entry is on record as “approximately 30%”. The BCS class result in data set [1] is reported as “Class III”. In addition, the Solubility in acetone entry in data set [2] (acetone) is on record as “ca. 1 mg/mL”. In addition, the Solubility in ethanol result in data set [2] (ethanol) is given as “ca. 10 mg/mL”. Moreover, the Solubility in isopropanol in data set [2] (isopropanol) is less than 1000 µg/mL. Further, in data set [2] (methanol), the Solubility in methanol result is listed as “ca. 60 mg/mL”. Further, the Solubility in water in data set [2] (water) was 900 µg/mL (≈ 1900 µM).
